This note sets out measurements from patent US10213415B2, “Compounds as opioid receptor modulators” (JANSSEN PHARMACEUTICA NV, priority 2004, dated 2019).

SMILES strings stand for the structures. Bounds are passed on as bounds.

Test [1] concerns the target T1, human delta subtype 2 opioid receptor (Homo sapiens, UniProt P41143).
T1 construct: purchased Perkin Elmer RBHODM400UA; host or cells: Chinese Hamster Ovary cells (recombinant expression)
Kind of test: Human Delta Opioid Receptor Binding Assay (CHO membranes, 3H-Naltrindole). To be noted: read-out: hKi δ. The protocol: This assay is designed to test the ability of a compound to interfere with the binding of tritiated Naltrindole to the human delta subtype 2 opioid receptor. Membranes from Chinese Hamster Ovary cells expressing the human delta subtype 2 opioid receptor (Perkin Elmer #RBHODM400UA) are homogenized in assay buffer (50 mM Tris, pH 7.5 with 5 mM MgCl2) using a glass tissue grinder, Teflon pestle and a Steadfast Stirrer (Fisher Scientific). The concentration of membranes is adjusted to 100 μg/mL in assay buffer and 100 μL is dispensed into each well of the assay plate, a 96 well round bottom polypropylene plate. Compounds to be tested are solubilized in DMSO (Pierce), 10 mM, then diluted in assay buffer to 6× the desired final concentration. The ligand, ^3H-Naltrindole (Perkin Elmer #NET-1065) is also diluted in assay buffer to 6 nM. In a second 96 well round bottom polypropylene plate, known as the premix plate, 60 μL of the 6× compound is combined with 60 μL of 6 nM ^3H-Naltrindole. From this premix plate 50 μL is transferred to the assay plate containing the membranes, in duplicate. The assay plate is incubated for 30 min at room temperature. A GF/C 96 well filter plate (Perkin Elmer #6005174) is pretreated with 0.3% polyethylenimine for 30 min. The contents of the assay plate are filtered through the filter plate using a Packard Filtermate Harvester, and washed 3 times with 0.9% saline that is 4° C. The filter plate is dried, the underside sealed, and 30 μL Microscint20 (Packard #6013621) added to each well. A Topcount-NXT Microplate Scintillation Counter (Packard) is used to measure emitted energies in the range of 2.9 to 35 KeV. Results are compared to maximum binding, wells receiving no inhibitors. Nonspecific binding is determined in the presence of 1 μM unlabelled Naltrindole (Sigma #N115).

The target of another test is T2, human mu opioid receptor (Homo sapiens, UniProt P35372).
T2 construct: purchased Perkin Elmer RBHOMM400UA; host or cells: Chinese Hamster Ovary cells (recombinant expression)
Kind of test: Human Mu Opioid Receptor Binding Assay (CHO membranes, 3H-Damgo). To be noted: read-out: hKi μ. The procedure: Membranes from Chinese Hamster Ovary cells expressing the human […] opioid receptor (Perkin Elmer #RBHOMM400UA) are homogenized in assay buffer (50 mM Tris, pH 7.5 with 5 mM MgCl2) using a glass tissue grinder, Teflon pestle and a Steadfast Stirrer (Fisher Scientific). The concentration of membranes is adjusted to 300 μg/mL in assay buffer and 100 μL is dispensed into each well of the assay plate, a 96 well round bottom polypropylene plate. Compounds to be tested are solubilized in DMSO (Pierce), 10 mM, then diluted in assay buffer to 6× the desired final concentration. The ligand, ^3H-Damgo (Perkin Elmer #NET-902) is also diluted in assay buffer to 3.6 nM. In a second 96 well round bottom polypropylene plate, known as the premix plate, 60 μL of the 6× compound is combined with 60 μL of 3.6 nM ^3H-Damgo. From this premix plate 50 μL is transferred to the assay plate containing the membranes, in duplicate. The assay plate is incubated for 2 h at room temperature. A GF/C 96 well filter plate (Perkin Elmer #6005174) is pretreated with 0.3% polyethylenimine for 30 min. The contents of the assay plate are filtered through the filter plate using a Packard Filtermate Harvester, and washed 3 times with 0.9% saline that is 4° C. The filter plate is dried, the underside sealed, and 30 μL Microscint20 (Packard #6013621) added to each well. A Topcount-NXT Microplate Scintillation Counter (Packard) is used to measure emitted energies in the range of 2.9 to 35 KeV. […] Nonspecific binding is determined in the presence of 1 μM unlabelled Damgo (Tocris #1171).

T1 sequence (P41143 whole entry): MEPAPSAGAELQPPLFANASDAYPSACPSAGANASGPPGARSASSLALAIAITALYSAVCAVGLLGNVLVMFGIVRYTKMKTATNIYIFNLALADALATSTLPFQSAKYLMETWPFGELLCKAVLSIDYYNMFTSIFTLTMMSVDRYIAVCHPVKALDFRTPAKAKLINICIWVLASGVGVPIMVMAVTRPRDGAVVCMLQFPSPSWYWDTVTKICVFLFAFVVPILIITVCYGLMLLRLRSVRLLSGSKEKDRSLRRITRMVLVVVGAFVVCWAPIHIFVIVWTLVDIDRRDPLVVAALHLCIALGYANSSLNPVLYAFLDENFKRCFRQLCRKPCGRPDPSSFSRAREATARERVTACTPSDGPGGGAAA
T2 sequence (P35372 whole entry): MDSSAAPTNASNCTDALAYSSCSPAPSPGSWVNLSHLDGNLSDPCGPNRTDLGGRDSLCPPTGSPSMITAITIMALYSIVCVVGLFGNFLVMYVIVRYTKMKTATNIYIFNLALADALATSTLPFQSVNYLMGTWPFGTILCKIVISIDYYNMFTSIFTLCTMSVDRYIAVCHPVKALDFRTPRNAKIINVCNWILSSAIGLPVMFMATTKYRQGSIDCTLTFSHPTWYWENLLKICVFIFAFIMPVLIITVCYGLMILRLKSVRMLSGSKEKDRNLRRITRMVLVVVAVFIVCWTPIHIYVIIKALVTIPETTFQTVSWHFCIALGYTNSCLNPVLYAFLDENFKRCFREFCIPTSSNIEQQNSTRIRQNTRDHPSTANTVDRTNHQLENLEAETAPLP

As for `COc1ccccc1-c1nc(CN(C(=O)[C@@H](N)Cc2c(C)cc(O)cc2C)C(C)C)[nH]c1C` [Cpd 135], the values for the Ki (in test [1]; at human mu opioid receptor) were 1040 nM and 7 nM, respectively.

Turning to `Cc1cc(O)cc(C)c1C[C@H](N)C(=O)N(Cc1nc(-c2cc(F)cc(F)c2)c(C)[nH]1)C(C)C` [Cpd 126], the figures for the Ki (in test [1]; at human mu opioid receptor) were 164 nM and 7.8 nM, respectively.

Take `Cc1cc(C(N)=O)cc(C)c1C[C@H](N)C(=O)N(CCc1ccccc1)[C@H](C)c1nc(-c2ccccc2)c[nH]1` [Cpd 110]: the Ki in test [1] turned out to be 1400 nM; on human mu opioid receptor, 191 nM.

Consider `Cc1cc(O)cc(C)c1C[C@H](N)C(=O)N(C(C)C)[C@@H](Cc1cccc(C(N)=O)c1)c1nc(-c2ccccc2)c[nH]1` [Cpd 121], for which the results for the Ki (in test [1]; at human mu opioid receptor) were 182 nM and 25.3 nM, respectively.

Take `Cc1cc(O)cc(C)c1C[C@H](N)C(=O)N(Cc1nc(-c2cccc(Cl)c2)c(C)[nH]1)C(C)C` [Cpd 70]: the Ki in test [1] was found to be 85 nM; on human mu opioid receptor, 2.6 nM.

Consider `Cc1cc(O)cc(C)c1C[C@H](N)C(=O)N(Cc1nc(-c2ccc(N(C)C)cc2)c(C)[nH]1)C(C)C` [Cpd 66], for which the results for the Ki (in test [1]; at human mu opioid receptor) were 550 nM and 6.5 nM, respectively.

Take `Cc1cc(O)cc(C)c1C[C@H](N)C(=O)N(Cc1nc(-c2ccc(-c3ccccc3)cc2)c(C)[nH]1)C(C)C` [Cpd 115]: the values for the Ki (in test [1]; at human mu opioid receptor) were 321 nM and 68 nM, respectively.

In the case of `Cc1cc(O)cc(C)c1CC(N)C(=O)N(Cc1ccccc1)C(C)c1nc(-c2ccc(F)cc2)c[nH]1` (stereo not drawn) [Cpd 83], the Ki in test [1] turned out to be 48 nM; at human mu opioid receptor it was 4.67 nM.

For the molecule `Cc1cc(O)cc(C)c1C[C@H](N)C(=O)N(Cc1ccccc1)[C@@H](CC(C)C)c1nc(-c2ccccc2)c[nH]1` [Cpd 104], the Ki in test [1] stood at 484 nM; at human mu opioid receptor, 100 nM.

In the case of `Cc1cc(O)cc(C)c1C[C@H](N)C(=O)N(Cc1ccc2ccccc2c1)[C@@H](C)c1nc(-c2ccccc2)c[nH]1` [Cpd 100], the values for the Ki (in test [1]; at human mu opioid receptor) were 88 nM and 20 nM, respectively.

For `Cc1cc(O)cc(C)c1C[C@H](N)C(=O)N(Cc1cccc(Br)c1)[C@@H](C)c1nc(-c2ccccc2)c[nH]1` [Cpd 101], the Ki in test [1] was 47 nM; at human mu opioid receptor, 24 nM.

For the molecule `COc1ccccc1CN(C(=O)[C@@H](N)Cc1c(C)cc(O)cc1C)[C@@H](C)c1nc(-c2ccccc2)c[nH]1` [Cpd 96], the Ki in test [1] was determined as 14.6 nM; on human mu opioid receptor, 9.7 nM.

Consider `Cc1cc(O)cc(C)c1C[C@H](N)C(=O)N(Cc1nc(-c2cccc(O)c2)c(C)[nH]1)C(C)C` [Cpd 68], for which the values for the Ki (in test [1]; on human mu opioid receptor) were 59 nM and 0.6 nM, respectively.

As for `Cc1cc(O)cc(C)c1C[C@H](N)C(=O)N(C(C)C)[C@@H](Cc1cccc(CN)c1)c1nc(-c2ccccc2)c[nH]1` [Cpd 120], the Ki in test [1] stood at 740 nM; on human mu opioid receptor, 20.8 nM.

`COC(=O)c1cccc(CN(C(=O)[C@@H](N)Cc2c(C)cc(O)cc2C)[C@@H](C)c2nc(-c3ccccc3)c[nH]2)c1` [Cpd 52]: the values for the Ki (in test [1]; on human mu opioid receptor) were 66 nM and 12.1 nM, respectively.

On to `Cc1cc(O)cc(C)c1C[C@H](N)C(=O)N(CC1CCN(C(=O)OCc2ccccc2)CC1)[C@@H](C)c1nc(-c2ccccc2)c[nH]1` [Cpd 53], for which the Ki in test [1] turned out to be 96 nM; on human mu opioid receptor, 13.1 nM.

Regarding `CC(C)[C@@H](c1nc(-c2ccccc2)c[nH]1)N(C(=O)[C@@H](N)Cc1cccc(C#N)c1)C(C)C` [Cpd 160], the Ki is more than 10000 nM in test [1] and more than 1000 nM on human mu opioid receptor.

In the case of `Cc1cc(O)cc(C)c1C[C@H](N)C(=O)N(Cc1nc(-c2cccc(S(C)(=O)=O)c2)c(C)[nH]1)C(C)C` [Cpd 72], the Ki in test [1] was determined as 71 nM; on human mu opioid receptor, 1.03 nM.

Regarding `Cc1cc(C(N)=O)cc(C)c1C[C@H](N)C(=O)N(Cc1ccccc1)[C@@H](COCc1ccccc1)c1nc(-c2ccccc2)c[nH]1` [Cpd 64], the figures for the Ki (in test [1]; at human mu opioid receptor) were 1110 nM and 117 nM, respectively.

On to `Cc1cc(O)cc(C)c1C[C@H](N)C(=O)N(C(C)C)[C@@H](CC(C)C)c1nc(-c2ccccc2)c[nH]1` [Cpd 140], for which the Ki worked out at 985 nM in test [1] and 79 nM at human mu opioid receptor.

On to `CC(C)N(C(=O)[C@@H](N)Cc1cccc(C(N)=O)c1)[C@@H](Cc1ccccc1)c1nc(-c2ccccc2)c[nH]1` [Cpd 136], for which the Ki came to 1610 nM in test [1] and 726 nM on human mu opioid receptor.

Regarding `Cc1cc(O)cc(C)c1C[C@H](N)C(=O)N(Cc1ccc(N(C)C)cc1)[C@@H](C)c1nc(-c2ccccc2)cn1C` [Cpd 77], the Ki in test [1] is 13.5 nM; on human mu opioid receptor it was 1.8 nM.

On to `Cc1cc(O)cc(C)c1C[C@H](N)C(=O)N(Cc1nc(-c2cccnc2)c(C)[nH]1)C(C)C` [Cpd 124], for which the values for the Ki (in test [1]; at human mu opioid receptor) were 1280 nM and 1.7 nM, respectively.

On to `Cc1cc(O)cc(C)c1C[C@H](N)C(=O)N(CC1CCCCC1)[C@@H](C)c1nc(-c2ccccc2)c[nH]1` [Cpd 56], for which the Ki in test [1] came out at 225 nM; at human mu opioid receptor, 65.3 nM.

Consider `Cc1cc(C(N)=O)cc(C)c1C[C@H](N)C(=O)N(Cc1ccccc1)[C@@H](C)c1nc(-c2ccc(F)cc2)c[nH]1` [Cpd 76], for which the Ki in test [1] is 43.1 nM; at human mu opioid receptor it was 1.6 nM.

Turning to `Cc1cc(O)cc(C)c1C[C@H](N)C(=O)N(Cc1nc(-c2cccc(C(=O)N(C)C)c2)c(C)[nH]1)C(C)C` [Cpd 67], the Ki in test [1] was 438 nM; at human mu opioid receptor, 4.5 nM.

In the case of `Cc1cc(O)cc(C)c1C[C@H](N)C(=O)N(Cc1nc(-c2cccc3ccccc23)c(C)[nH]1)C(C)C` [Cpd 156], the Ki in test [1] worked out at 380 nM; at human mu opioid receptor, 0.59 nM.

As for `Cc1cc(C(N)=O)cc(C)c1C[C@H](N)C(=O)N(C1CCCCC1)[C@@H](C)c1nc(-c2ccccc2)c[nH]1` [Cpd 127], the Ki turned out to be 710 nM in test [1] and 47 nM at human mu opioid receptor.

Take `Cc1cc(C(N)=O)cc(C)c1C[C@H](N)C(=O)N(Cc1ccccc1)[C@@H](C)c1nc(-c2cccc(F)c2)c[nH]1` [Cpd 59]: the figures for the Ki (in test [1]; on human mu opioid receptor) were 120 nM and 5.1 nM, respectively.

On to `CC(C)N(C(=O)[C@@H](N)Cc1ccc(O)cc1)[C@@H](Cc1ccccc1)c1nc(-c2ccccc2)c[nH]1` [Cpd 158], for which the Ki is more than 10000 nM in test [1] and 0.23 nM on human mu opioid receptor.

In the case of `Cc1cc(O)cc(C)c1C[C@H](N)C(=O)N(Cc1nc(-c2cccc(F)c2)c(C)[nH]1)C(C)C` [Cpd 116], the Ki in test [1] was found to be 30.3 nM; at human mu opioid receptor it was 0.54 nM.

For `Cc1cc(O)cc(C)c1C[C@H](N)C(=O)N(Cc1nc(-c2ccc(C(N)=O)cc2)c(C)[nH]1)C(C)C` [Cpd 69], the Ki in test [1] worked out at 272 nM; on human mu opioid receptor, 4.4 nM.

`Cc1cc(O)cc(C)c1C[C@H](N)C(=O)N(Cc1nc(Br)c(C)[nH]1)C(C)C` [Cpd 65]: the Ki in test [1] turned out to be 517 nM; on human mu opioid receptor, 0.36 nM.

Turning to `CC(C)[C@@H](c1nc(-c2ccccc2)c[nH]1)N(C(=O)[C@@H](N)Cc1ccc(O)cc1)C(C)C` [Cpd 161], the Ki in test [1] was more than 10000 nM; on human mu opioid receptor, more than 1000 nM.

Regarding `Cc1cc(O)cc(C)c1C[C@H](N)C(=O)N(Cc1nc(-c2cccc(C(N)=O)c2)c(C)[nH]1)C(C)C` [Cpd 73], the Ki came to 151 nM in test [1] and 1.9 nM on human mu opioid receptor.

Regarding `Cc1cc(O)cc(C)c1C[C@H](N)C(=O)N(C(C)C)[C@@H](C)c1nc(-c2ccc(F)cc2)c[nH]1` [Cpd 84], the Ki in test [1] amounted to 9.6 nM; on human mu opioid receptor it was 1.1 nM.

Regarding `Cc1cc(C(N)=O)cc(C)c1C[C@H](N)C(=O)N(CCc1ccccc1)[C@@H](C)c1nc(-c2ccccc2)c[nH]1` [Cpd 109], the figures for the Ki (in test [1]; on human mu opioid receptor) were 77 nM and 8.2 nM, respectively.

Take `Cc1cc(O)cc(C)c1C[C@H](N)C(=O)N(Cc1nc(-c2cccc(-c3ccccc3)c2)c(C)[nH]1)C(C)C` [Cpd 134]: the Ki is 463 nM in test [1] and 121 nM on human mu opioid receptor.

For `Cc1cc(O)cc(C)c1C[C@H](N)C(=O)N(Cc1ccc(O)cc1)[C@@H](C)c1nc(-c2ccccc2)c[nH]1` [Cpd 81], the Ki is 15.7 nM in test [1] and 1.7 nM at human mu opioid receptor.
